Tested on: LPS/D-galactosamine model of septic shock
Assay: Lethal LPS/D-galactosamine-induced shock, survival of mice (Example 1)
Assay type: in vivo
Details: for mortality: 72 hrs post-treatment
Experimental: Mice were treated with 5-EPP after inducing shock with lipopolysaccharide (LPS) pursuant to established models for lethal LPS-induced shock. The method described by Galanos C, Freudenberg M A, Reutter W. Proc Natl Acad Sci USA. 1979 November; 76 (11):5939-43 was followed. The survival of the mice after treatment with various doses of the agent in LPS/D-galactosamine model of septic shock was monitored. All agents were injected simultaneously via the intraperitoneal route and the response compared to a placebo agent (saline).
All data were analyzed by Fisher's exact test (Prism™ for Window 4.02, Graphpad Software, Inc., San Diego, Calif.). A value of P<0.05 was considered to be statistically significant.
Table 1 clearly illustrates that 5-ethyl-1-phenyl-2(1H)-pyridone (5-EPP) protected mice from lethal LPS/D-galactosamine-induced shock at 72 hrs post-treatment.

CCc1ccc(=O)n(-c2ccccc2)c1 [5-EPP, 5-ethyl-1-phenyl-2-(1H)-pyridone]
mortality (25 mg/kg i.p. simultaneously with LPS/D-galactosamine): 30% mortality | mortality (50 mg/kg i.p. simultaneously with LPS/D-galactosamine): 5% mortality | mortality (100 mg/kg i.p. simultaneously with LPS/D-galactosamine): 0% mortality | onset of lethal shock (lowest dose (25 mg/kg)): delay of the onset of lethal shock

From patent US8093210B2, “Treatment of sepsis with 5-ethyl-1-phenyl-2(1H)-pyridone” (Solanan, Inc., priority 2008, dated 2012)
